{"source": "patent US10945989B2", "about": "“Perinatal treatment with a flavonoid agonist of the TrkB receptor for BDNF rescues neurogenesis and behavior in the Ts65Dn mouse model of DS” (ALMA MATER STUDIORUM—Universita' di Bologna, priority 2017, dated 2021)", "key": {"ERK1/ERK2": {"system": "ERK1/ERK2", "assay": "Western blot of hippocampal homogenates: ERK1/2 and p-ERK1/2", "type": "in vivo, mouse", "settings": "for ERK2/ERK1 ratio, mean / p-ERK2/p-ERK1 ratio, mean: hippocampal region", "description": "(§1) Euploid and Ts65Dn mice received a daily subcutaneous injection (at 9-10 am) of 7,8-DHF (5.0 mg/kg in vehicle: PBS with 1% DMSO) or vehicle from postnatal day 3 (P3) to postnatal day 15. This timing was chosen because it corresponds to that previously used to test the effects of fluoxetine and other pharmacotherapies in the neonate Ts65Dn mouse (Bianchi et al., 2010b; Giacomini et al., 2015; Stagni et al., 2016). Mice that received 7,8-DHF will be called “treated mice” (treated euploid mice: n=25; treated Ts65Dn mice: n=15). Mice that received the vehicle will be called “untreated mice” (untreated euploid mice: n=35; untreated Ts65Dn mice: n=21). […] The brains were excised and cut along the midline. The left hemisphere of a group of mice was fixed by immersion in PFA 4% and frozen, and the left hemisphere of another group of mice was used for Golgi staining. The right hemispheres of all mice was kept at −80° C. and used for western blotting.\n(§2) In homogenates of the hippocampal formation of P15 mice, total proteins were obtained as previously described (Trazzi et al., 2011) and the levels of the following proteins were evaluated: BDNF, TrkB full length (TrkB-FL), phosphorylated TrkB (p-TrkB), the truncated form 1 of the TrkB receptor (TrkB-T1), phosphorylated ERK1 (p-ERK1), phosphorylated ERK2 (p-ERK2), ERK1, ERK2, synaptophysin (SYN), GAPDH and α-Tubulin using the antibodies reported in Table 1. Densitometric analysis of digitized images with ChemiDoc XRS+ was performed with Image Lab software (Bio-Rad Laboratories, Hercules, Calif., USA) and intensity for each band was normalized to the intensity of the corresponding GAPDH or α-Tubulin band."}, "[1]": {"system": "neural precursor cells of the DG", "assay": "BrdU-positive cells in the dentate gyrus of P15 mice", "type": "in vivo, mouse", "settings": "for number of BrdU-positive cells in the DG: Ts65Dn pups", "description": "In a pilot study we tested the effects of different doses of 7,8-DHF on the proliferation rate in the SGZ of Ts65Dn mice. Mice received a daily subcutaneous injection of 7,8-DHF (2.5, 5.0, or 10.0 mg/kg in PBS with 1-2% DMSO) from postnatal day 3 (P3) to P15. […] Therefore, this study (Experiment 1 and Experiment 2) was carried out using a 5.0 mg/kg dose.\nas §1\nOne out of six free-floating sections (n=15-18 sections) from the hippocampal formation of P15 mice was incubated with rat anti-BrdU antibody.\nBrdU-positive cells in the DG of P15 mice were detected using a fluorescence microscope (Eclipse; objective: ×40, 0.75 NA; final magnification: ×400). Quantification of BrdU-labeled nuclei was conducted in every 6th section using a modified unbiased stereology protocol that has previously been reported as successfully quantifying BrdU labeling (Malberg et al., 2000; Kempermann and Gage, 2002; Tozuka et al., 2005). All BrdU labeled cells located in the granule cell and subgranular layers were counted in their entire z axis (1 μm steps) in each section. To avoid oversampling errors, nuclei intersecting the uppermost focal plane were excluded. The total number of BrdU labeled cells per animal was determined and multiplied by six to obtain the total estimated number of cells per DG."}, "cultures of NPCs": {"system": "cultures of NPCs", "assay": "Apoptotic cells in NPC cultures", "type": "cell-based, mouse", "settings": "data not shown"}, "[2]": {"settings": "Liu et al., 2010 and 2013; cited from earlier work"}, "[3]": {"system": "TrkB receptor (TrkB-FL, p-TrkB-FL, TrkB-T1)", "assay": "Western blot of hippocampal homogenates: TrkB receptors", "type": "in vivo, mouse", "description": "as §1, §2"}, "[4]": {"settings": "P15 Ts65Dn mice, vs untreated counterparts and untreated euploid mice"}}, "data": [{"smiles": "O=c1cc(-c2ccccc2)oc2c(O)c(O)ccc12", "note": "[7,8-DHF, 7,8-dihydroxyflavone]", "values": [{"measurement": "p-ERK1 levels", "setting": "ERK1/ERK2; P15 Ts65Dn mice, vs untreated Ts65Dn and untreated euploid mice", "value": "increase in p-ERK1 levels"}, {"measurement": "ERK1 levels", "setting": "ERK1/ERK2; P15 Ts65Dn mice, vs untreated Ts65Dn mice", "value": "increase in ERK1 levels"}, {"measurement": "ERK2 levels", "setting": "ERK1/ERK2; [4]", "value": "increase in ERK2 levels"}, {"measurement": "p-ERK2 levels", "setting": "ERK1/ERK2; P15 Ts65Dn mice, vs untreated euploid mice", "value": "increase in p-ERK2 levels"}, {"measurement": "ERK2 levels", "setting": "ERK1/ERK2; P15 euploid mice, vs untreated counterparts", "value": "increase in ERK2 levels"}, {"measurement": "stoichiometry of ERK1/2 and p-ERK1/2", "setting": "ERK1/ERK2; Ts65Dn mice", "value": "did not affect their stoichiometry"}, {"measurement": "ERK2/ERK1 ratio, mean", "setting": "ERK1/ERK2; Ts65Dn mice, 7,8-DHF P3-P15", "value": 3.93}, {"measurement": "p-ERK2/p-ERK1 ratio, mean", "setting": "ERK1/ERK2; Ts65Dn mice, 7,8-DHF P3-P15", "value": 2.01}, {"measurement": "ERK2/ERK1 ratio, mean", "setting": "ERK1/ERK2; euploid mice, 7,8-DHF P3-P15", "value": 4.18}, {"measurement": "p-ERK2/p-ERK1 ratio, mean", "setting": "ERK1/ERK2; euploid mice, 7,8-DHF P3-P15", "value": 2.32}, {"measurement": "number of BrdU-positive cells in the DG", "setting": "[1]; 2.5 mg/kg P3-P15, vs vehicle", "value": "no effect"}, {"measurement": "number of BrdU-positive cells in the DG", "setting": "[1]; 5.0 mg/kg P3-P15, vs vehicle", "value": "increased the number of BrdU-positive cells"}, {"measurement": "number of BrdU-positive cells in the DG", "setting": "[1]; 10.0 mg/kg P3-P15, vs vehicle", "value": "increased the number of BrdU-positive cells"}, {"measurement": "number of NPCs (BrdU-positive cells) in the DG", "setting": "[1]; euploid mice, 5.0 mg/kg P3-P15", "value": "no effect on the number of NPCs"}, {"measurement": "optimum dose for proliferation rate in the SGZ", "setting": "[1]; pilot study, Ts65Dn mice, 2.5, 5.0 or 10.0 mg/kg s.c. P3-P15", "value": 5.0, "unit": "mg/kg"}, {"measurement": "total number of BrdU-positive (proliferating) cells per DG", "setting": "[1]; treated Ts65Dn mice, 5.0 mg/kg P3-P15, mean±SE, untreated Ts65Dn 7166±337, untreated euploid 10,281±111", "value": "8963±449"}, {"measurement": "number of apoptotic cells", "setting": "cultures of NPCs", "value": "no effect of treatment"}, {"measurement": "blood-brain barrier penetration", "setting": "[2]", "value": "penetrates the blood-brain barrier"}, {"measurement": "levels of p-TrkB-FL", "setting": "[3]; P15, both genotypes (euploid and Ts65Dn)", "value": "increase in the levels of p-TrkB-FL"}, {"measurement": "levels of TrkB-FL", "setting": "[3]; P15 Ts65Dn mice", "value": "reduction in the levels of TrkB-FL"}, {"measurement": "levels of TrkB-T1", "setting": "[3]; [4]", "value": "reduction in the levels of TrkB-T1"}]}]}
